{"source": "patent US20230322797A1", "about": "“SOLID FORMS, PHARMACEUTICAL COMPOSITIONS AND PREPARATION OF HETEROAROMATIC MACROCYCLIC ETHER COMPOUNDS” (Nuvalent, Inc., priority 2022, published 2023)", "note": "Where a name gives a salt, the structure may show the parent alone."}
{"assay": "Solubility of Compound 1 salts in organic solvents (solvent volumes)", "format": "physicochemical", "settings": "2-MeTHF", "description": "(§1) Preparation of Additional Salts: Additional salts shown in the Table below were prepared using procedures similar to those described above and the solubility of the resulting salts of Compound 1 was evaluated."}
{"compound": "CCn1nc(Cl)c2c1-c1cnc(N)c(c1)O[C@H](C)c1cc(F)ccc1-c1nn(C)cc1C2", "note": "[TsOH salt]", "Solubility, Volume (at 10-20° C.)": ">400 V"}
{"compound": "CCn1nc(Cl)c2c1-c1cnc(N)c(c1)O[C@H](C)c1cc(F)ccc1-c1nn(C)cc1C2", "note": "[Salicylic acid salt]", "Solubility, Volume (at 10-20° C.)": "18-20 V"}
{"compound": "CCn1nc(Cl)c2c1-c1cnc(N)c(c1)O[C@H](C)c1cc(F)ccc1-c1nn(C)cc1C2", "note": "[Maleic Acid salt]", "Solubility, Volume (at 10-20° C.)": "50-60 V"}
{"compound": "CCn1nc(Cl)c2c1-c1cnc(N)c(c1)O[C@H](C)c1cc(F)ccc1-c1nn(C)cc1C2", "note": "[MSA salt]", "Solubility, Volume (at 10-20° C.)": ">400 V"}
{"compound": "CCn1nc(Cl)c2c1-c1cnc(N)c(c1)O[C@H](C)c1cc(F)ccc1-c1nn(C)cc1C2", "note": "[HCl salt]", "Solubility, Volume (at 10-20° C.)": ">400 V"}
{"assay": "Solubility of Compound 1 salts in organic solvents (solvent volumes)", "format": "physicochemical", "settings": "Acetone", "description": "as §1"}
{"compound": "CCn1nc(Cl)c2c1-c1cnc(N)c(c1)O[C@H](C)c1cc(F)ccc1-c1nn(C)cc1C2", "note": "[TsOH salt]", "Solubility, Volume (at 10-20° C.)": "10-12 V"}
{"compound": "CCn1nc(Cl)c2c1-c1cnc(N)c(c1)O[C@H](C)c1cc(F)ccc1-c1nn(C)cc1C2", "note": "[Salicylic acid salt]", "Solubility, Volume (at 10-20° C.)": "26-28 V"}
{"compound": "CCn1nc(Cl)c2c1-c1cnc(N)c(c1)O[C@H](C)c1cc(F)ccc1-c1nn(C)cc1C2", "note": "[Maleic Acid salt]", "Solubility, Volume (at 10-20° C.)": "2-4 V"}
{"compound": "CCn1nc(Cl)c2c1-c1cnc(N)c(c1)O[C@H](C)c1cc(F)ccc1-c1nn(C)cc1C2", "note": "[MSA salt]", "Solubility, Volume (at 10-20° C.)": "56-60 V"}
{"compound": "CCn1nc(Cl)c2c1-c1cnc(N)c(c1)O[C@H](C)c1cc(F)ccc1-c1nn(C)cc1C2", "note": "[HCl salt]", "Solubility, Volume (at 10-20° C.)": "22-24 V"}
{"assay": "Solubility of Compound 1 salts in organic solvents (solvent volumes)", "format": "physicochemical", "settings": "CPME", "description": "as §1"}
{"compound": "CCn1nc(Cl)c2c1-c1cnc(N)c(c1)O[C@H](C)c1cc(F)ccc1-c1nn(C)cc1C2", "note": "[TsOH salt]", "Solubility, Volume (at 10-20° C.)": ">400 V"}
{"compound": "CCn1nc(Cl)c2c1-c1cnc(N)c(c1)O[C@H](C)c1cc(F)ccc1-c1nn(C)cc1C2", "note": "[Salicylic acid salt]", "Solubility, Volume (at 10-20° C.)": "100-140 V"}
{"compound": "CCn1nc(Cl)c2c1-c1cnc(N)c(c1)O[C@H](C)c1cc(F)ccc1-c1nn(C)cc1C2", "note": "[Maleic Acid salt]", "Solubility, Volume (at 10-20° C.)": "220 V"}
{"compound": "CCn1nc(Cl)c2c1-c1cnc(N)c(c1)O[C@H](C)c1cc(F)ccc1-c1nn(C)cc1C2", "note": "[MSA salt]", "Solubility, Volume (at 10-20° C.)": ">400 V"}
{"compound": "CCn1nc(Cl)c2c1-c1cnc(N)c(c1)O[C@H](C)c1cc(F)ccc1-c1nn(C)cc1C2", "note": "[HCl salt]", "Solubility, Volume (at 10-20° C.)": ">500 V"}
{"assay": "Solubility of Compound 1 salts in organic solvents (solvent volumes)", "format": "physicochemical", "settings": "EtOAc", "description": "as §1"}
{"compound": "CCn1nc(Cl)c2c1-c1cnc(N)c(c1)O[C@H](C)c1cc(F)ccc1-c1nn(C)cc1C2", "note": "[TsOH salt]", "Solubility, Volume (at 10-20° C.)": "18-20 V"}
{"compound": "CCn1nc(Cl)c2c1-c1cnc(N)c(c1)O[C@H](C)c1cc(F)ccc1-c1nn(C)cc1C2", "note": "[Salicylic acid salt]", "Solubility, Volume (at 10-20° C.)": "26-30 V"}
{"compound": "CCn1nc(Cl)c2c1-c1cnc(N)c(c1)O[C@H](C)c1cc(F)ccc1-c1nn(C)cc1C2", "note": "[Maleic Acid salt]", "Solubility, Volume (at 10-20° C.)": "20-30 V"}
{"compound": "CCn1nc(Cl)c2c1-c1cnc(N)c(c1)O[C@H](C)c1cc(F)ccc1-c1nn(C)cc1C2", "note": "[MSA salt]", "Solubility, Volume (at 10-20° C.)": "300-400 V"}
{"compound": "CCn1nc(Cl)c2c1-c1cnc(N)c(c1)O[C@H](C)c1cc(F)ccc1-c1nn(C)cc1C2", "note": "[HCl salt]", "Solubility, Volume (at 10-20° C.)": ">400 V"}
{"assay": "Solubility of Compound 1 salts in organic solvents (solvent volumes)", "format": "physicochemical", "settings": "IPA", "description": "as §1"}
{"compound": "CCn1nc(Cl)c2c1-c1cnc(N)c(c1)O[C@H](C)c1cc(F)ccc1-c1nn(C)cc1C2", "note": "[TsOH salt]", "Solubility, Volume (at 10-20° C.)": ">400 V"}
{"compound": "CCn1nc(Cl)c2c1-c1cnc(N)c(c1)O[C@H](C)c1cc(F)ccc1-c1nn(C)cc1C2", "note": "[Salicylic acid salt]", "Solubility, Volume (at 10-20° C.)": "300-400 V"}
{"compound": "CCn1nc(Cl)c2c1-c1cnc(N)c(c1)O[C@H](C)c1cc(F)ccc1-c1nn(C)cc1C2", "note": "[Maleic Acid salt]", "Solubility, Volume (at 10-20° C.)": "70-80 V"}
{"compound": "CCn1nc(Cl)c2c1-c1cnc(N)c(c1)O[C@H](C)c1cc(F)ccc1-c1nn(C)cc1C2", "note": "[MSA salt]", "Solubility, Volume (at 10-20° C.)": "56-60 V"}
{"compound": "CCn1nc(Cl)c2c1-c1cnc(N)c(c1)O[C@H](C)c1cc(F)ccc1-c1nn(C)cc1C2", "note": "[HCl salt]", "Solubility, Volume (at 10-20° C.)": "8-10 V"}
{"assay": "Solubility of Compound 1 salts in organic solvents (solvent volumes)", "format": "physicochemical", "settings": "IPAc", "description": "as §1"}
{"compound": "CCn1nc(Cl)c2c1-c1cnc(N)c(c1)O[C@H](C)c1cc(F)ccc1-c1nn(C)cc1C2", "note": "[TsOH salt]", "Solubility, Volume (at 10-20° C.)": "18-20 V"}
{"compound": "CCn1nc(Cl)c2c1-c1cnc(N)c(c1)O[C@H](C)c1cc(F)ccc1-c1nn(C)cc1C2", "note": "[Salicylic acid salt]", "Solubility, Volume (at 10-20° C.)": "56-60 V"}
{"compound": "CCn1nc(Cl)c2c1-c1cnc(N)c(c1)O[C@H](C)c1cc(F)ccc1-c1nn(C)cc1C2", "note": "[Maleic Acid salt]", "Solubility, Volume (at 10-20° C.)": "20-30 V"}
{"compound": "CCn1nc(Cl)c2c1-c1cnc(N)c(c1)O[C@H](C)c1cc(F)ccc1-c1nn(C)cc1C2", "note": "[MSA salt]", "Solubility, Volume (at 10-20° C.)": "260-300 V"}
{"compound": "CCn1nc(Cl)c2c1-c1cnc(N)c(c1)O[C@H](C)c1cc(F)ccc1-c1nn(C)cc1C2", "note": "[HCl salt]", "Solubility, Volume (at 10-20° C.)": ">400 V"}
{"assay": "Solubility of Compound 1 salts in organic solvents (solvent volumes)", "format": "physicochemical", "settings": "MeCN", "description": "as §1"}
{"compound": "CCn1nc(Cl)c2c1-c1cnc(N)c(c1)O[C@H](C)c1cc(F)ccc1-c1nn(C)cc1C2", "note": "[TsOH salt]", "Solubility, Volume (at 10-20° C.)": "8-10 V"}
{"compound": "CCn1nc(Cl)c2c1-c1cnc(N)c(c1)O[C@H](C)c1cc(F)ccc1-c1nn(C)cc1C2", "note": "[Salicylic acid salt]", "Solubility, Volume (at 10-20° C.)": "90-100 V"}
{"compound": "CCn1nc(Cl)c2c1-c1cnc(N)c(c1)O[C@H](C)c1cc(F)ccc1-c1nn(C)cc1C2", "note": "[Maleic Acid salt]", "Solubility, Volume (at 10-20° C.)": "16-20 V"}
{"compound": "CCn1nc(Cl)c2c1-c1cnc(N)c(c1)O[C@H](C)c1cc(F)ccc1-c1nn(C)cc1C2", "note": "[MSA salt]", "Solubility, Volume (at 10-20° C.)": "6-8 V"}
{"compound": "CCn1nc(Cl)c2c1-c1cnc(N)c(c1)O[C@H](C)c1cc(F)ccc1-c1nn(C)cc1C2", "note": "[HCl salt]", "Solubility, Volume (at 10-20° C.)": "8-10 V"}
{"assay": "Solubility of Compound 1 salts in organic solvents (solvent volumes)", "format": "physicochemical", "settings": "THF", "description": "as §1"}
{"compound": "CCn1nc(Cl)c2c1-c1cnc(N)c(c1)O[C@H](C)c1cc(F)ccc1-c1nn(C)cc1C2", "note": "[TsOH salt]", "Solubility, Volume (at 10-20° C.)": "280-300 V"}
{"compound": "CCn1nc(Cl)c2c1-c1cnc(N)c(c1)O[C@H](C)c1cc(F)ccc1-c1nn(C)cc1C2", "note": "[Salicylic acid salt]", "Solubility, Volume (at 10-20° C.)": "4-6 V"}
{"compound": "CCn1nc(Cl)c2c1-c1cnc(N)c(c1)O[C@H](C)c1cc(F)ccc1-c1nn(C)cc1C2", "note": "[Maleic Acid salt]", "Solubility, Volume (at 10-20° C.)": "2-4 V"}
{"compound": "CCn1nc(Cl)c2c1-c1cnc(N)c(c1)O[C@H](C)c1cc(F)ccc1-c1nn(C)cc1C2", "note": "[MSA salt]", "Solubility, Volume (at 10-20° C.)": "60-100 V"}
{"compound": "CCn1nc(Cl)c2c1-c1cnc(N)c(c1)O[C@H](C)c1cc(F)ccc1-c1nn(C)cc1C2", "note": "[HCl salt]", "Solubility, Volume (at 10-20° C.)": "300-400 V"}
{"assay": "Solubility of Compound 1 salts in organic solvents (solvent volumes)", "format": "physicochemical", "settings": "Toluene", "description": "as §1"}
{"compound": "CCn1nc(Cl)c2c1-c1cnc(N)c(c1)O[C@H](C)c1cc(F)ccc1-c1nn(C)cc1C2", "note": "[TsOH salt]", "Solubility, Volume (at 10-20° C.)": ">400 V"}
{"compound": "CCn1nc(Cl)c2c1-c1cnc(N)c(c1)O[C@H](C)c1cc(F)ccc1-c1nn(C)cc1C2", "note": "[Salicylic acid salt]", "Solubility, Volume (at 10-20° C.)": "320-360 V"}
{"compound": "CCn1nc(Cl)c2c1-c1cnc(N)c(c1)O[C@H](C)c1cc(F)ccc1-c1nn(C)cc1C2", "note": "[Maleic Acid salt]", "Solubility, Volume (at 10-20° C.)": ">400 V"}
{"compound": "CCn1nc(Cl)c2c1-c1cnc(N)c(c1)O[C@H](C)c1cc(F)ccc1-c1nn(C)cc1C2", "note": "[MSA salt]", "Solubility, Volume (at 10-20° C.)": ">400 V"}
{"compound": "CCn1nc(Cl)c2c1-c1cnc(N)c(c1)O[C@H](C)c1cc(F)ccc1-c1nn(C)cc1C2", "note": "[HCl salt]", "Solubility, Volume (at 10-20° C.)": ">400 V"}
{"assay": "Solubility of Compound 1 salts in organic solvents (solvent volumes)", "format": "physicochemical", "settings": "t-AmOH", "description": "as §1"}
{"compound": "CCn1nc(Cl)c2c1-c1cnc(N)c(c1)O[C@H](C)c1cc(F)ccc1-c1nn(C)cc1C2", "note": "[TsOH salt]", "Solubility, Volume (at 10-20° C.)": ">400 V"}
{"compound": "CCn1nc(Cl)c2c1-c1cnc(N)c(c1)O[C@H](C)c1cc(F)ccc1-c1nn(C)cc1C2", "note": "[Salicylic acid salt]", "Solubility, Volume (at 10-20° C.)": ">400 V"}
{"compound": "CCn1nc(Cl)c2c1-c1cnc(N)c(c1)O[C@H](C)c1cc(F)ccc1-c1nn(C)cc1C2", "note": "[Maleic Acid salt]", "Solubility, Volume (at 10-20° C.)": "6-8 V"}
{"compound": "CCn1nc(Cl)c2c1-c1cnc(N)c(c1)O[C@H](C)c1cc(F)ccc1-c1nn(C)cc1C2", "note": "[MSA salt]", "Solubility, Volume (at 10-20° C.)": "340-360 V"}
{"compound": "CCn1nc(Cl)c2c1-c1cnc(N)c(c1)O[C@H](C)c1cc(F)ccc1-c1nn(C)cc1C2", "note": "[HCl salt]", "Solubility, Volume (at 10-20° C.)": "18-20 V"}
